The supplement of paper PMC5908809

Tests used:
NKL (IL-2 2.5 ng/mL) [1] = assay: drug sensitivity score (DSS) (DSS units); higher = more sensitive; extreme values may be limits of the assay; conditions: 72 h
[2] = test system: normal primary NK cells, pool 2 (3 donors) (IL-2 2.5 ng/mL); assay: as above; conditions: 72 h
NK-92 (IL-2 2.5 ng/mL) [3] = assay: as above; conditions: 72 h
DERL-7 (IL-2 2.5 ng/mL) [4] = assay: as above; conditions: 72 h
[5] = test system: normal primary NK cells, pool 1 (3 donors), resting (IL-2 0 ng/mL); assay: as above; conditions: 72 h
[6] = test system: normal primary NK cells, pool 1 (3 donors) (IL-2 2.5 ng/mL); assay: as above; conditions: 72 h
YT (IL-2 2.5 ng/mL) [7] = assay: as above; conditions: 72 h
NK-YS (IL-2 2.5 ng/mL) [8] = assay: as above; conditions: 72 h
SNK-6 (IL-2 2.5 ng/mL) [9] = assay: as above; conditions: 72 h
IMC-1 (IL-2 20 ng/mL) [10] = assay: as above; conditions: 72 h
KAI3 (IL-2 2.5 ng/mL) [11] = assay: as above; conditions: 72 h
KHYG-1 (IL-2 2.5 ng/mL) [12] = assay: as above; conditions: 72 h
[13] = test system: normal primary NK cells, pool 3 (3 donors) (IL-2 2.5 ng/mL); assay: as above; conditions: 72 h
[14] = test system: normal NK cells expanded with K562-aAPC; assay: as above; conditions: 72 h; IL-2 2.5 ng/mL
Experimental: (§1)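 Drug sensitivity and resistance testing on K562-aAPC-expanded normal NK cells: 5 concentrations (10-fold steps over a 10,000-fold range), 72 h at 37 °C, viability by CellTiter-Glo normalised to DMSO and benzethonium chloride controls; DSS from the fitted curve.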

NKL (IL-2 2.5 ng/mL) [15] = assay: percent inhibition of viability; higher = more inhibition; conditions: 72 h
[16] = test system: normal primary NK cells, pool 2 (3 donors) (IL-2 2.5 ng/mL); assay: as above; conditions: 72 h
NK-92 (IL-2 2.5 ng/mL) [17] = assay: as above; conditions: 72 h
DERL-7 (IL-2 2.5 ng/mL) [18] = assay: as above; conditions: 72 h
[19] = test system: normal primary NK cells, pool 1 (3 donors), resting (IL-2 0 ng/mL); assay: as above; conditions: 72 h
[20] = test system: normal primary NK cells, pool 1 (3 donors) (IL-2 2.5 ng/mL); assay: as above; conditions: 72 h
YT (IL-2 2.5 ng/mL) [21] = assay: as above; conditions: 72 h
NK-YS (IL-2 2.5 ng/mL) [22] = assay: as above; conditions: 72 h
SNK-6 (IL-2 2.5 ng/mL) [23] = assay: as above; conditions: 72 h
IMC-1 (IL-2 20 ng/mL) [24] = assay: as above; conditions: 72 h
KAI3 (IL-2 2.5 ng/mL) [25] = assay: as above; conditions: 72 h
KHYG-1 (IL-2 2.5 ng/mL) [26] = assay: as above; conditions: 72 h
[27] = test system: normal primary NK cells, pool 3 (3 donors) (IL-2 2.5 ng/mL); assay: as above; conditions: 72 h
[28] = test system: normal NK cells expanded with K562-aAPC; assay: as above; conditions: 72 h, IL-2 2.5 ng/mL
Experimental: as §1

CCc1cnn2c(NCc3ccc[n+]([O-])c3)cc(N3CCCC[C@H]3CCO)nc12 [Dinaciclib] (max concentration tested 1000 nM)
Conditions	drug sensitivity score
DERL-7 (IL-2 2.5 ng/mL) [4]	22.5
IMC-1 (IL-2 20 ng/mL) [10]	23.7
KAI3 (IL-2 2.5 ng/mL) [11]	24.6
KHYG-1 (IL-2 2.5 ng/mL) [12]	23.6
NK-92 (IL-2 2.5 ng/mL) [3]	25.9
NK-YS (IL-2 2.5 ng/mL) [8]	28.3
NKL (IL-2 2.5 ng/mL) [1]	28.8
SNK-6 (IL-2 2.5 ng/mL) [9]	23.7
YT (IL-2 2.5 ng/mL) [7]	29.8
[2]	28.8
[5]	20
[6]	23.2
[13]	26.6
[14]	22.4

percent inhibition of viability [%]
Conditions	0.1 nM	1 nM	10 nM	100 nM	1000 nM
DERL-7 (IL-2 2.5 ng/mL) [18]	3.44	0.2	31.4	100	101
IMC-1 (IL-2 20 ng/mL) [24]	-1.04	-1.9	44	99.7	102
KAI3 (IL-2 2.5 ng/mL) [25]	5.48	7.7	54.5	108	110
KHYG-1 (IL-2 2.5 ng/mL) [26]	-3.45	-3.48	42.5	109	112
NK-92 (IL-2 2.5 ng/mL) [17]	-2.1	2.09	67.9	108	111
NK-YS (IL-2 2.5 ng/mL) [22]	-6.76	-1.49	87.6	104	109
NKL (IL-2 2.5 ng/mL) [15]	4.95	3.07	88.7	109	112
SNK-6 (IL-2 2.5 ng/mL) [23]	-7.12	-37	81.4	47.2	48.2
YT (IL-2 2.5 ng/mL) [21]	-2.44	2.09	93.8	108	111
[16]	-6.55	2.06	90.3	97.1	94.6
[19]	-4.86	1	21.3	91.6	92.6
[20]	-4.8	3.36	45.1	98.6	98.7
[27]	-4.86	2.55	72	99.3	100
[28]	-4.8	-2.24	30.3	101	102

O=C(O)c1ccc(-c2c[nH]c3ncc(-c4ccccc4)cc23)cc1C1CCCC1 (max concentration tested 10000 nM)
Conditions	drug sensitivity score
DERL-7 (IL-2 2.5 ng/mL) [4]	4.22
IMC-1 (IL-2 20 ng/mL) [10]	4.18
KAI3 (IL-2 2.5 ng/mL) [11]	8.09
KHYG-1 (IL-2 2.5 ng/mL) [12]	8.41
NK-92 (IL-2 2.5 ng/mL) [3]	4.5
NK-YS (IL-2 2.5 ng/mL) [8]	4.89
NKL (IL-2 2.5 ng/mL) [1]	7.3
SNK-6 (IL-2 2.5 ng/mL) [9]	0
YT (IL-2 2.5 ng/mL) [7]	3.73
[2]	3.48
[5]	3.47
[6]	3.22
[13]	1.43
[14]	6.12

percent inhibition of viability [%]
Conditions	1 nM	10 nM	100 nM	1000 nM	10000 nM
DERL-7 (IL-2 2.5 ng/mL) [18]	-9.96	-1.92	-0.6	3.14	69
IMC-1 (IL-2 20 ng/mL) [24]	-3.86	-6.5	-2.05	1.32	72.7
KAI3 (IL-2 2.5 ng/mL) [25]	14.8	11.5	12.9	31	53.1
KHYG-1 (IL-2 2.5 ng/mL) [26]	1.54	-1.17	6.23	24.4	87.8
NK-92 (IL-2 2.5 ng/mL) [17]	-7.79	-6.02	-14.8	6.45	63.1
NK-YS (IL-2 2.5 ng/mL) [22]	3.9	-4.11	6.44	17.4	53.2
NKL (IL-2 2.5 ng/mL) [15]	-3	3.11	11.4	27.3	76.9
SNK-6 (IL-2 2.5 ng/mL) [23]	2.78	-21.4	-20.9	-24.3	-8.86
YT (IL-2 2.5 ng/mL) [21]	3.57	-0.35	6.38	10.9	43.5
[16]	-5.78	-5.79	-4.92	6.53	46
[19]	-0.46	4.28	6.33	11.9	41.2
[20]	-4.88	9.93	9.09	13.8	33.7
[27]	2.83	5.65	10	2.66	25.9
[28]	0.69	-1.15	0.93	14.6	68.6
